Patent publication US12351570B2 (MERCK PATENT GMBH, priority 2018, dated 2025)
Counter-ions that a name gives are not always drawn.

These compounds were tested on MDA-MB-231 cells (assay: Extracellular lactate production inhibition after 4 h, MDA-MB-231). Conditions: Homo sapiens, MDA-MB-231.
Description: Extracellular Lactate Production Inhibition after 4 h
Cells were plated in growth media supplemented with 10% FBS, followed by overnight recovery at 37° C., 5% CO2. […] Plates were then moved for 4 h incubation at 37° C., 5% CO2 with subsequent 20 μl media transfer to empty 384-well transparent plates. […] Plates were short-spun and measured kinetically in absorbance mode (530 nm, 12 min measurement time with 2-minute intervals between subsequent readouts at 30° C.). Differences in the signal between T8 min and T0min were normalized to vehicle (cells w/ 0.25% DMSO) and quasi-positive (LCIS buffer w/ 0.25% DMSO) controls and plotted against logarithmically-transformed test compound concentrations with fitting the 4-parameter model in GraphPad Prism software.

SMILES | IC50
COc1cc(C(=O)O)ncc1C#Cc1ccccc1N(C=O)Cc1ccc(-c2ccccc2)cc1 [Compound 192, 5-(2-{2-[N-({[1,1′-biphenyl]-4-yl}methyl)formamido]phenyl}ethynyl)-4-methoxypyridine-2-carboxylic acid] | 1 to 10 nM
Cc1ccc2cccnc2c1S(=O)(=O)Nc1ccccc1C#Cc1cnc(C(=O)O)cc1O [Compound 193, 4-hydroxy-5-{2-[2-(7-methylquinoline-8-sulfonamido)phenyl]ethynyl}pyridine-2-carboxylic acid] | 1000 to 100000 nM
Cc1cc(C#Cc2ccccc2N(C=O)Cc2ccc(-c3ccccc3)cc2)cnc1C(=O)O [Compound 194, 5-(2-{2-[N-({[1,1′-biphenyl]-4-yl}methyl)formamido]phenyl}ethynyl)-3-methylpyridine-2-carboxylic acid] | 100 to 1000 nM
Cc1cc(C#Cc2ccccc2N(C=O)Cc2ccc3ccccc3c2)cnc1C(=O)O [Compound 195, 3-methyl-5-[2-(2-{N-[(naphthalen-2-yl)methyl]formamido}phenyl)ethynyl]-pyridine-2-carboxylic acid] | 100 to 1000 nM
O=CN(Cc1cnc2ccccc2c1)c1ccccc1C#Cc1ccc(C(=O)O)nc1 [Compound 196, 5-[2-(2-{N-[(quinolin-3-yl)methyl]formamido}phenyl)ethynyl]-pyridine-2-carboxylic acid] | 1000 to 100000 nM
COc1ccc(C#Cc2ccc(C(=O)O)nc2)c(NS(=O)(=O)c2ccc(OC)c3cccnc23)c1 [Compound 197, 5-{2-[4-methoxy-2-(5-methoxyquinoline-8-sulfonamido)phenyl]ethynyl}pyridine-2-carboxylic acid] | 100 to 1000 nM
Cn1c2ccccc2c2c(S(=O)(=O)Nc3ccccc3C#Cc3ccc(C(=O)O)nc3)cccc21 [Compound 198, 5-{2-[2-(9-methyl-9H-carbazole-4-sulfonamido)phenyl]ethynyl}pyridine-2-carboxylic acid] | 100 to 1000 nM
COc1ccc(S(=O)(=O)Nc2cc(Cl)ccc2C#Cc2ccc(C(=O)O)nc2)c2ncccc12 [Compound 199, 5-{2-[4-chloro-2-(5-methoxyquinoline-8-sulfonamido)phenyl]ethynyl}pyridine-2-carboxylic acid] | 10 to 100 nM
O=CN(CCc1cccc2ccccc12)c1ccccc1C#Cc1ccc(C(=O)O)nc1 [Compound 200, 5-[2-(2-{N-[2-(naphthalen-1-yl)ethyl]-formamido}phenyl)ethynyl]pyridine-2-carboxylic acid] | 100 to 1000 nM
COc1cc(CN(C=O)c2ccccc2C#Cc2ccc(C(=O)O)nc2)ccc1-c1ccccc1 [Compound 201, 5-(2-{2-[N-({2-methoxy-[1,1′-biphenyl]-4-yl}methyl)formamido]phenyl}-ethynyl)pyridine-2-carboxylic acid] | 10 to 100 nM
O=CN(Cc1ccccc1C#Cc1ccc(C(=O)O)nc1)c1ccc2ccccc2c1 [Compound 202, 5-[2-(2-{[N-(naphthalen-2-yl)formamido]methyl}phenyl)-ethynyl]pyridine-2-carboxylic acid] | 10 to 100 nM
O=CN(Cc1cccc(Oc2ccccc2)c1)c1ccccc1C#Cc1ccc(C(=O)O)nc1 [Compound 203, 5-[2-(2-{N-[(3-phenoxyphenyl)methyl]-formamido}phenyl)ethynyl]pyridine-2-carboxylic acid] | 100 to 1000 nM
Cc1ccc2cccnc2c1S(=O)(=O)Nc1cc(Cl)c(Cl)cc1C#Cc1ccc(C(=O)O)nc1 [Compound 204, 5-{2-[4,5-dichloro-2-(7-methylquinoline-8-sulfonamido)phenyl]ethynyl}pyridine-2-carboxylic acid] | 10 to 100 nM
CNc1cc(C#Cc2ccccc2NS(=O)(=O)c2c(C)ccc3cccnc23)cnc1C(=O)O [Compound 206, 3-(methylamino)-5-{2-[2-(7-methylquinoline-8-sulfonamido)phenyl]-ethynyl}pyridine-2-carboxylic acid] | 1 to 10 nM
C=C(C)c1cc(C(=O)O)ncc1C#Cc1ccccc1NS(=O)(=O)c1ccc(OC)c2cccnc12 [Compound 207] | 10 to 100 nM
COc1ccc(S(=O)(=O)Nc2ccccc2C#Cc2cnc(C(=O)O)c3ccccc23)c2ncccc12 [Compound 209, 4-{2-[2-(5-methoxyquinoline-8-sulfonamido)phenyl]ethynyl}isoquinoline-1-carboxylic acid] | 100 to 1000 nM
CCOc1ccc2cccnc2c1S(=O)(=O)Nc1ccccc1C#Cc1ccc(C(=O)O)nc1 [Compound 210, 5-{2-[2-(7-ethoxyquinoline-8-sulfonamido)phenyl]ethynyl}pyridine-2-carboxylic acid] | 10 to 100 nM
CC(C)Oc1ccc2cccnc2c1S(=O)(=O)Nc1ccccc1C#Cc1ccc(C(=O)O)nc1 [Compound 211, 5-(2-{2-[7-(propan-2-yloxy)quinoline-8-sulfonamido]phenyl}ethynyl)pyridine-2-carboxylic acid] | 10 to 100 nM

SMILES | IC50
CNc1cc(C#Cc2ccccc2NS(=O)(=O)c2ccc(OC)c3cccnc23)cnc1C(=O)O [Compound 212, 5-{2-[2-(5-methoxyquinoline-8-sulfonamido)phenyl]ethynyl}-3-(methylamino)pyridine-2-carboxylic acid] | 1 to 10 nM
COc1cc(-c2ccccc2)ccc1CN(C=O)c1ccccc1C#Cc1ccc(C(=O)O)nc1 [Compound 213, 5-(2-{2-[N-({3-methoxy-[1,1′-biphenyl]-4-yl}methyl)formamido]phenyl}-ethynyl)pyridine-2-carboxylic acid] | 10 to 100 nM
COc1ccc(S(=O)(=O)Nc2ccc(I)cc2C#Cc2ccc(C(=O)O)nc2)c2ncccc12 [Compound 214, 5-{2-[5-iodo-2-(5-methoxyquinoline-8-sulfonamido)phenyl]ethynyl}pyridine-2-carboxylic acid] | 1 to 10 nM
COc1cc(C(=O)O)ncc1C#Cc1ccccc1N(C=O)Cc1ccc(-c2ccccc2OC)cc1 [Compound 215, 4-methoxy-5-(2-{2-[N-({2′-methoxy-[1,1′-biphenyl]-4-yl}methyl)formamido]phenyl}-ethynyl)pyridine-2-carboxylic acid] | 1 to 10 nM
COc1ccc(S(=O)(=O)Nc2ccccc2C#Cc2ccc(C(=O)NO)nc2)c2ncccc12 [Compound 216, N-hydroxy-5-{2-[2-(5-methoxyquinoline-8-sulfonamido)phenyl]ethynyl}pyridine-2-carboxamide] | 100 to 1000 nM
COc1ccc(C#Cc2ccc(C(=O)O)nc2)c(NS(=O)(=O)c2c(C)ccc3cccnc23)c1 [Compound 218, 5-{2-[4-methoxy-2-(7-methylquinoline-8-sulfonamido)phenyl]ethynyl}pyridine-2-carboxylic acid] | 100 to 1000 nM
COc1cc(C(=O)O)ncc1C#Cc1ccccc1NS(=O)(=O)N1CCC2CCCCC21 (stereo not shown) [Compound 219, 4-methoxy-5-(2-{2-[(octahydro-1H-indole-1-sulfonyl)amino]phenyl}ethynyl)pyridine-2-carboxylic acid] | 100 to 1000 nM
O=CN(Cc1ccc(-c2ccccc2)nc1)c1ccccc1C#Cc1ccc(C(=O)O)nc1 [Compound 220, 5-[2-(2-{N-[(6-phenylpyridin-3-yl)methyl]formamido}phenyl)-ethynyl]pyridine-2-carboxylic acid] | 100 to 1000 nM
COc1cc(C(=O)O)ncc1C#Cc1ccccc1NS(=O)(=O)N1CCC[C@@H]2CCCC[C@H]21 [Compound 221, 5-[2-(2-{[(4a,8a-trans)-decahydro-quinoline-1-sulfonyl]amino}phenyl)-ethynyl]-4-methoxypyridine-2-carboxylic acid] | 1 to 10 nM
COc1cc(C(=O)O)ncc1C#Cc1ccccc1NS(=O)(=O)N1CCC(C)C2CCCCC21 (stereo not shown) [Compound 222, 4-methoxy-5-[2-(2-{[(4-methyl-deca-hydroquinolin-1-yl)sulfonyl]amino}-phenyl)ethynyl]pyridine-2-carboxylic acid] | 10 to 100 nM
COc1cc(C(=O)N(C)C)ncc1C#Cc1ccccc1NS(=O)(=O)c1ccc(OC)c2cccnc12 [Compound 223, 4-methoxy-5-{2-[2-(5-methoxyquinoline-8-sulfonamido)phenyl]ethynyl}-N,N-dimethylpyridine-2-carboxamide] | 1000 to 100000 nM
COc1cc(C(=O)NO)ncc1C#Cc1ccccc1NS(=O)(=O)c1ccc(OC)c2cccnc12 [Compound 224, N-hydroxy-4-methoxy-5-{2-[2-(5-methoxyquinoline-8-sulfonamido)phenyl-]ethynyl}pyridine-2-carboxamide] | 100 to 1000 nM
Cc1cc(C#Cc2ccccc2NS(=O)(=O)N2CCC[C@@H]3CCCC[C@H]32)cnc1C(=O)O [Compound 225, 5-[2-(2-{[(4a,8a-trans)-decahydro-quinoline-1-sulfonyl]amino}phenyl)-ethynyl]-3-methylpyridine-2-carboxylic acid] | 10 to 100 nM
Cc1ccc2cccnc2c1S(=O)(=O)Nc1ccccc1C#Cc1cnc(C(=O)O)cc1-c1ccccc1 [Compound 226, 5-{2-[2-(7-methylquinoline-8-sulfonamido)phenyl]ethynyl}-4-phenylpyridine-2-carboxylic acid] | 10 to 100 nM
Cn1c2ccccc2c2cc(S(=O)(=O)Nc3ccccc3C#Cc3ccc(C(=O)O)nc3)ccc21 [Compound 227, 5-{2-[2-(9-methyl-9H-carbazole-3-sulfonamido)phenyl]ethynyl}pyridine-2-carboxylic acid] | 10 to 100 nM
CC1CCN(S(=O)(=O)Nc2ccccc2C#Cc2ccc(C(=O)O)nc2)C2CCCCC12 (stereo not shown) [Compound 228, 5-[2-(2-{[(4-methyl-decahydroquinolin-1-yl)sulfonyl]amino}phenyl)ethynyl]pyridine-2-carboxylic acid] | 10 to 100 nM
COc1cc(C#Cc2ccccc2NS(=O)(=O)c2ccc(OC)c3cccnc23)ccc1C(=O)O [Compound 230, 2-methoxy-4-{2-[2-(5-methoxyquinoline-8-sulfonamido)phenyl]ethynyl}benzoic acid] | 100 to 1000 nM
Cc1ccc2cccnc2c1S(=O)(=O)Nc1ccc(N)cc1C#Cc1ccc(C(=O)O)nc1 [Compound 231, 5-{2-[5-amino-2-(7-methylquinoline-8-sulfonamido)phenyl]ethynyl}pyridine-2-carboxylic acid] | 1000 to 100000 nM

Same assay, conditions: Table 3; group class A-D; the table does not say which assay or cell line ("the assays described above")

SMILES | IC50
O=CN(Cc1ccc2ncccc2c1)c1ccccc1C#Cc1ccc(C(=O)O)nc1 [Compound 205, trifluoroacetate] | 1000 to 100000 nM
